Among the test systems are RXF 393 renal; SR leukemia; CAKI-1 renal; SNB-75 CNS; HL-60(TB) leukemia; OVCAR-5 ovarian; SW-620 colon; MCF7 breast; M14 melanoma; EKVX NSCLC.
What all share (test): DTP human tumour cell line panel, 48 h

Our source for the GI50 and TGI values is PubChem BioAssay (NCI).

The GI50 is the concentration giving 50% growth inhibition. As usually defined, the TGI is the concentration giving total growth inhibition. The low end stands for more potent growth arrest, the high end for less potent growth arrest.

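A five-concentration, 48-hour dose response in 96-well plates underlies each endpoint, interpolated linearly between surrounding concentrations. GI50: concentration for 50% inhibition of growth. The concentration for full growth arrest is given as TGI.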 Some results are limits rather than exact numbers.

Regarding `CN(C)N=Nc1nn(C(=O)Nc2ccc(Cc3ccccc3)cc2)c2ccccc12`, the GI50 in the assay on RXF 393 renal was above 28.9 µM; in the assay on SR leukemia, above 100 µM; with CAKI-1 renal, 1.12 µM; with SNB-75 CNS, 85.4 µM; with HL-60(TB) leukemia it was 25.2 µM; with OVCAR-5 ovarian, above 21.6 µM. Moreover, the GI50 in the assay on SW-620 colon was 0.199 µM; in the assay with MCF7 breast, 0.387 µM; with M14 melanoma, 0.168 µM. Moreover, the TGI with RXF 393 renal, in the assay with SR leukemia, in the assay with CAKI-1 renal, in the assay on SNB-75 CNS, with HL-60(TB) leukemia and in the assay on OVCAR-5 ovarian was above 100 µM each time. Also, the TGI in the assay on SW-620 colon, in the assay with MCF7 breast and with M14 melanoma was above 100 µM in each case.
Turning to `Nc1ccccc1C#C/C=C\C#Cc1ccccc1F`, the GI50 with EKVX NSCLC was 10.8 µM; in the assay with RXF 393 renal, 17.8 µM; in the assay with CAKI-1 renal, 2.89 µM; in the assay with OVCAR-5 ovarian, 9.31 µM; in the assay with SW-620 colon, 16 µM; with MCF7 breast, 3.2 µM. In addition, the GI50 with M14 melanoma was 5.39 µM. For the same molecule, the TGI in the assay on EKVX NSCLC is 53.2 µM; in the assay with RXF 393 renal, 57.5 µM; with CAKI-1 renal it was 9.36 µM; with OVCAR-5 ovarian, 23.9 µM; in the assay with SW-620 colon, above 100 µM; in the assay with MCF7 breast, above 100 µM. Moreover, the total growth inhibition concentration (TGI) in the assay on M14 melanoma was found to be 18.3 µM.
With `CNc1ncc2cc(Oc3ccc(F)cc3F)c(=O)n(C)c2n1`, the GI50 with RXF 393 renal was above 19.3 µM; in the assay with SR leukemia, above 25 µM; in the assay with CAKI-1 renal, above 25 µM; in the assay on SNB-75 CNS, 9.33 µM; in the assay on HL-60(TB) leukemia, above 25 µM; with OVCAR-5 ovarian, above 25 µM. Also, the GI50 in the assay on SW-620 colon, in the assay on MCF7 breast and with M14 melanoma was above 25 µM in each case. The TGI with RXF 393 renal, in the assay with SR leukemia, in the assay on CAKI-1 renal, in the assay with SNB-75 CNS, with HL-60(TB) leukemia and in the assay with OVCAR-5 ovarian was above 25 µM each time. Moreover, the concentration for total growth inhibition (TGI) in the assay with SW-620 colon, with MCF7 breast and in the assay with M14 melanoma was above 25 µM each time.
On to `CNC(=O)c1cncc(/C=C/c2c(Cl)cccc2Cl)c1`, for which the GI50 in the assay with EKVX NSCLC is above 25 µM; in the assay with RXF 393 renal it was 8.89 µM; in the assay with CAKI-1 renal it was 13.6 µM; in the assay on SNB-75 CNS it was 2.89 µM; with HL-60(TB) leukemia it was above 25 µM; in the assay with OVCAR-5 ovarian it was above 25 µM. Also, the GI50 with SW-620 colon is above 25 µM; with MCF7 breast, above 25 µM; in the assay with M14 melanoma it was above 23.4 µM. The total growth inhibition concentration (TGI) in the assay with EKVX NSCLC was above 25 µM; with RXF 393 renal, above 25 µM; in the assay with CAKI-1 renal, above 25 µM; in the assay on SNB-75 CNS, above 16.1 µM; in the assay on HL-60(TB) leukemia, above 25 µM; with OVCAR-5 ovarian, above 25 µM. The TGI with SW-620 colon, in the assay on MCF7 breast and with M14 melanoma was above 25 µM in each case.
In the case of `O=C(NN1C(=O)CSC12CCC(c1ccccc1)CC2)c1[nH]c2ccc(F)cc2c1-c1ccccc1` (stereo unspecified), the GI50 was 26.7 µM with EKVX NSCLC; 15.3 µM in the assay on RXF 393 renal; 17.5 µM with CAKI-1 renal; 18 µM in the assay on SNB-75 CNS; 18.5 µM with OVCAR-5 ovarian; 17.4 µM in the assay on SW-620 colon. Further, the results for the GI50 in the assay on MCF7 breast and in the assay on M14 melanoma were 25.3 µM and 20.1 µM, respectively. Also, the TGI was determined as 62 µM in the assay with EKVX NSCLC; 29.5 µM in the assay on RXF 393 renal; 36.6 µM with CAKI-1 renal; 36.3 µM with SNB-75 CNS; 34.7 µM in the assay with OVCAR-5 ovarian; 36.8 µM in the assay with SW-620 colon. The TGI in the assay with MCF7 breast is 71.8 µM; in the assay with M14 melanoma it was 35.6 µM.
On to `O=C(Cn1c2ccccc2c2ccncc21)N/N=C\c1ccc2ccccc2c1`, for which the GI50 was 24.8 µM in the assay on EKVX NSCLC; 19 µM in the assay on RXF 393 renal; 6.39 µM in the assay with SR leukemia; 22.2 µM with SNB-75 CNS; 29 µM with HL-60(TB) leukemia; 36.5 µM with OVCAR-5 ovarian. For the same molecule, the figures for the GI50 with SW-620 colon, in the assay on MCF7 breast and with M14 melanoma were 12.7 µM, 14.3 µM and 16.5 µM, respectively. For the same molecule, the TGI was above 100 µM with EKVX NSCLC; 54.4 µM in the assay with RXF 393 renal; above 100 µM with SR leukemia; 61.6 µM with SNB-75 CNS; above 100 µM in the assay on HL-60(TB) leukemia; above 100 µM in the assay with OVCAR-5 ovarian. Also, the results for the TGI in the assay with SW-620 colon, in the assay on MCF7 breast and in the assay on M14 melanoma were above 100 µM, above 100 µM and 50.2 µM, respectively.
As to `O=C(CN1C(=O)S/C(=C\C(Cl)=C\c2ccccc2)C1=O)NCCCn1ccnc1`, the GI50 with EKVX NSCLC was 2.43 µM; with RXF 393 renal, 1.83 µM; in the assay with CAKI-1 renal, 1.91 µM; with SNB-75 CNS it was 1.22 µM; in the assay with OVCAR-5 ovarian, 2.4 µM; in the assay on SW-620 colon it was 1.72 µM. The GI50 in the assay with MCF7 breast is 1.36 µM; in the assay on M14 melanoma, 1.66 µM. The TGI in the assay on EKVX NSCLC amounted to 6.69 µM; in the assay with RXF 393 renal it was 3.68 µM; in the assay on CAKI-1 renal, 4.16 µM; in the assay on SNB-75 CNS it was 12.9 µM; with OVCAR-5 ovarian, 6.47 µM; with SW-620 colon, 3.67 µM. The concentration for total growth inhibition (TGI) in the assay with MCF7 breast worked out at 6.11 µM; in the assay on M14 melanoma, 3.59 µM.
`c1ccc(/C(=N\Nc2ccc3ccccc3n2)c2ccccn2)cc1`: the GI50 in the assay on EKVX NSCLC is 0.281 µM; in the assay on SR leukemia it was 0.246 µM; with CAKI-1 renal it was 0.0927 µM; in the assay on SNB-75 CNS, 2.56 µM; in the assay on HL-60(TB) leukemia, 0.235 µM; with OVCAR-5 ovarian, 0.81 µM. The GI50 in the assay with SW-620 colon is 0.699 µM; with MCF7 breast, 0.907 µM; in the assay with M14 melanoma, 0.484 µM. In addition, the TGI in the assay on EKVX NSCLC is 8.39 µM; with SR leukemia, 1.14 µM; in the assay on CAKI-1 renal, 3.95 µM; with SNB-75 CNS it was above 85.2 µM; in the assay on HL-60(TB) leukemia, 0.775 µM; in the assay on OVCAR-5 ovarian, 43 µM. For the same molecule, the TGI with SW-620 colon was 15.3 µM; with MCF7 breast, 11.5 µM; with M14 melanoma, 4.44 µM.
